The nature of series [1]: Clearance rate following an oral dose of 20 mg/kg in rats. The series is classed as ADME, organism-based. Further details: dose 20 mg/kg, route oral. The settings on record: rat, in vivo, read-out: Clearance.
A short description of series [2]: Peak plasma concentration (Cmax) following an oral dose of […] mg/kg in rats. The series is classed as ADME, organism-based. As to conditions: rat, 20 mg/kg.
Series [3] has as its target T1, Prostaglandin G/H synthase 1 (Homo sapiens, UniProt P23219). Briefly: Inhibitory concentration was measured […] the sensitive U937 microsome assay. The series is classed as microsomes.
Series [4] concerns the target T2, Prostaglandin G/H synthase 2 (Homo sapiens, UniProt P35354).
T2 sequence (P35354 whole entry): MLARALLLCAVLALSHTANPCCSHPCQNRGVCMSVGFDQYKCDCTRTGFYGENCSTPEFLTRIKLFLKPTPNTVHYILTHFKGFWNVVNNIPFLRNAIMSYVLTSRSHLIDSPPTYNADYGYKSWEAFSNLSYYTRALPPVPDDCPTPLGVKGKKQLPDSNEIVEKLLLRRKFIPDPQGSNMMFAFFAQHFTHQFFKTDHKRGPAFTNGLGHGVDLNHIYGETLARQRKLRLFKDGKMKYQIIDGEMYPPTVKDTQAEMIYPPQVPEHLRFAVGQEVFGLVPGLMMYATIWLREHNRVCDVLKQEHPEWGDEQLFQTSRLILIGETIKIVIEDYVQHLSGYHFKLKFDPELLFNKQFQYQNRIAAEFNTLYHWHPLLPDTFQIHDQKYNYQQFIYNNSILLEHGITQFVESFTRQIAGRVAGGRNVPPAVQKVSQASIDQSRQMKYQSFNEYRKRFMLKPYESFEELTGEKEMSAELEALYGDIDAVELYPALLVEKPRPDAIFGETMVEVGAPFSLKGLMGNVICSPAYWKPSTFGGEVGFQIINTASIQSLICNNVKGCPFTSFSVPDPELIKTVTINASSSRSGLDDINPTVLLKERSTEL
Briefly: Inhibitory concentration was measured against Cyclooxygenase-2 in human whole blood. The series is classed as tissue-based.

Series [5] has as its system Rattus norvegicus. Briefly: Inhibition of carrageenan induced rat paw oedema. The series is classed as functional. In general terms: In the carrageenan paw model, swelling and tenderness develop within hours.
The target of series [6] is T2, Prostaglandin G/H synthase 2.
The target in series [7] is T1, Prostaglandin G/H synthase 1. The series is classed as microsomes.
Description: Inhibitory concentration was measured against Prostaglandin G/H synthase 1 in the sensitive U937 microsome assay
Series [8] addresses T2, Prostaglandin G/H synthase 2. This is another data set of the same source.
Description: Inhibitory concentration was measured against Prostaglandin G/H synthase 2 in human whole blood
The target of series [9] is T1, Prostaglandin G/H synthase 1. The series is classed as tissue-based, Blood.
Description: Inhibitory concentration was measured against Prostaglandin G/H synthase 1 in human whole blood
Series [10] in a line: Oral bioavailability in rat. The series is classed as ADME, organism-based. The settings on record: in vivo.
A short description of series [11]: Aqueous solubility was determined. The series is classed as physicochemical.
Series [12] is filed under the species Rattus norvegicus. Briefly: Effective concentration to reduce pyrexia was determined in rats. The series is classed as functional.
The species named for series [13] is Rattus norvegicus. Nature of the series: Inhibitory dose to produce analgesia was determined in rats. The series is classed as functional. The settings on record: read-out: ID50 (the source's name).
The species named for series [14] is Rattus norvegicus. Briefly: Inhibitory dose to reduce arthritis was determined in rats. The series is classed as functional. The settings on record: read-out: ID50 (the source's name).

Data on 27 compounds can be found in ChEMBL document CHEMBL1136665 (Bioorg Med Chem Lett, 2003).

Structures are written as SMILES. A value given as a limit tells only on which side of the number the result lay.

T1 sequence (P23219 whole entry): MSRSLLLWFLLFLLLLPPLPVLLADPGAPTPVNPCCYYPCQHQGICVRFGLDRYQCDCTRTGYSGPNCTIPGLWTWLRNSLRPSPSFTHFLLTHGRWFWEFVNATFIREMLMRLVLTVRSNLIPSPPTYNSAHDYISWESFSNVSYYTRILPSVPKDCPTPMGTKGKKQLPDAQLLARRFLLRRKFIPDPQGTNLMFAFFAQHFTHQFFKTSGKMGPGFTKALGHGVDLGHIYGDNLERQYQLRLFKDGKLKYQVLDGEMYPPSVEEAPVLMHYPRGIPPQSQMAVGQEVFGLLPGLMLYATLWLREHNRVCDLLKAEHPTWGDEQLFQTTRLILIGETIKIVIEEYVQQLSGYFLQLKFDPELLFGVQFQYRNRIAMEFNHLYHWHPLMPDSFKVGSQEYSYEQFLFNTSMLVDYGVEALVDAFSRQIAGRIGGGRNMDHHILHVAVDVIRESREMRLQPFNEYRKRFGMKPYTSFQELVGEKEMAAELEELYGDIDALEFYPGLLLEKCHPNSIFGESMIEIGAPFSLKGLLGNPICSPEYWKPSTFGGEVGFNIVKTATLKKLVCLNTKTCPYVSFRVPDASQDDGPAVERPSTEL

As a reminder, the Cmax is the peak of the concentration-time curve. Broadly, the IC50 is the point on the concentration scale where inhibition reaches its midpoint. Take `CC1(O)OC(=O)C(c2ccc(F)cc2)=C1c1ccc(S(C)(=O)=O)cc1` (configuration not stated): the CL/F in [1] was 2.6 mL/min. The highest concentration (Cmax) in series [2] turned out to be 60 µM. In addition, the IC50 was more than 100 µM in series [3], 1.8 µM in series [4] and 0.38 µM in series [6]. Besides, in the series with Rattus norvegicus [5], the ED50 stood at 1.8 mg/kg.

With `CC(C)OC1(C)OC(=O)C(c2ccc(F)cc2)=C1c1ccc(S(C)(=O)=O)cc1` (configuration not stated), the IC50 is 3 µM in series [7] and 0.8 µM in series [8].

Take `CC1(O)OC(=O)C(c2ccc(Cl)c(Cl)c2)=C1c1ccc(S(C)(=O)=O)cc1` (configuration not stated): the IC50 came to 75 µM in [9], 35 µM in series [7], 0.07 µM in [6] and 0.85 µM in [8]. This compound registered an ED50 in the series on Rattus norvegicus [5] of 1.9 mg/kg.

In the case of `CC1(O)OC(=O)C(c2ccc(Cl)cc2Cl)=C1c1ccc(S(C)(=O)=O)cc1` (configuration not stated), the results for the 50% inhibitory concentration (IC50) in [7], in [6] and in series [8] were more than 100 µM, 1.2 µM and 7.5 µM, respectively.

With `CC1(O)OC(=O)C(c2ccc3ccccc3c2)=C1c1ccc(S(C)(=O)=O)cc1` (configuration not stated), the IC50 in series [7] was determined as 30 µM; in series [6], 0.45 µM; in [8] it was 3.2 µM. This compound also returned an ED50 with Rattus norvegicus [5] of more than 10 mg/kg.

Take `CC1(O)OC(=O)C(c2ccccc2)=C1c1ccc(S(C)(=O)=O)cc1` (configuration not stated): the IC50 was more than 90 µM in series [9], more than 100 µM in [7], 0.16 µM in [6] and 1.2 µM in series [8]. In the series with Rattus norvegicus [5], this compound gave an ED50 of 1.5 mg/kg.

As to `CC1(O)OC(=O)C(Sc2ccccc2)=C1c1ccc(S(C)(=O)=O)cc1` (configuration not stated), the IC50 is more than 10 µM in [7], more than 5 µM in series [6] and more than 10 µM in series [8].

As for `COC1(C)OC(=O)C(c2ccc(F)cc2)=C1c1ccc(S(C)(=O)=O)cc1` (configuration not stated), the concentration for half-maximal inhibition (IC50) in [9] worked out at 57 µM; in series [7], 14 µM; in [4], 0.1 µM; in [6] it was 0.069 µM. The ED50 in the series on Rattus norvegicus [5] turned out to be 2.8 mg/kg.

The term bioavailability denotes the share of a dose that reaches the circulation, judged against a reference dose that is usually intravenous. Higher therefore signals much systemic uptake. In turn, `CC1(OCC(F)(F)F)OC(=O)C(c2ccc(F)cc2)=C1c1ccc(S(C)(=O)=O)cc1` (configuration not stated) displayed a bioavailability in series [10] of 35%. Also, the half-inhibitory concentration (IC50) is more than 10 µM in [7], 0.32 µM in series [6] and 0.4 µM in series [8]. The compound also yielded an ED50 in the series with Rattus norvegicus [5] of 6.4 mg/kg.

For `CC1(O)OC(=O)C(Oc2ccc(F)c(F)c2)=C1c1ccc(S(C)(=O)=O)cc1` (configuration not stated), the concentration for half-maximal inhibition (IC50) is more than 10 µM in series [7], more than 5 µM in series [6] and more than 33 µM in [8].

In the case of `CC(C)c1ccc(C2=C(c3ccc(S(C)(=O)=O)cc3)C(C)(O)OC2=O)cc1` (configuration not stated), the half-maximal inhibitory concentration (IC50) in [9] was more than 100 µM; in series [7], more than 300 µM; in series [6], 0.41 µM; in series [8] it was 4.3 µM.

As to `CC1(O)OC(=O)C(c2ccsc2)=C1c1ccc(S(C)(=O)=O)cc1` (configuration not stated), the 50% inhibitory concentration (IC50) in series [7] was more than 100 µM; in [6], 0.11 µM; in series [8], 24 µM.

One may read the solubility as the dissolved amount per volume that the medium holds. Lower therefore signals little dissolved substance. Compound `CC(=O)/C(=C(\C(=O)[O-])c1ccc(Cl)cc1)c1ccc(S(C)(=O)=O)cc1.[Na+]` yielded a solubility in series [11] of more than 100 mg/mL. For the same compound, the ED50 was determined as 0.7 mg/kg in the series listed under Rattus norvegicus [12], 1.8 mg/kg with Rattus norvegicus [5], 0.8 mg/kg in the series filed under Rattus norvegicus [13] and 0.6 mg/kg in the series listed under Rattus norvegicus [14].

Turning to `CC1(O)OC(=O)C(c2cccc(F)c2)=C1c1ccc(S(C)(=O)=O)cc1` (configuration not stated), the IC50 in series [7] is more than 100 µM; in series [6], 0.25 µM; in series [8] it was 12.8 µM. In the series on Rattus norvegicus [5], this compound showed an ED50 of more than 10 mg/kg.

On to `CC1(O)OC(=O)C(c2ccc(Br)cc2)=C1c1ccc(S(C)(=O)=O)cc1` (configuration not stated), for which the concentration for half-maximal inhibition (IC50) in series [9] was more than 100 µM; in [7], 101 µM; in [6] it was 0.14 µM; in series [8] it was 1.7 µM. Besides, the ED50 with Rattus norvegicus [5] turned out to be 1.6 mg/kg.

For `CC1(O)OC(=O)C(c2cccs2)=C1c1ccc(S(C)(=O)=O)cc1` (configuration not stated), the concentration for half-maximal inhibition (IC50) in series [7] is more than 100 µM; in series [6] it was 1.9 µM; in series [8] it was more than 33 µM.

In the case of `CC1(O)OC(=O)C(c2ccc(Cl)cc2)=C1c1ccc(S(C)(=O)=O)cc1` (configuration not stated), the figures for the 50% inhibitory concentration (IC50) in [7] and in [6] were 105 µM and 0.11 µM, respectively. For the same compound, the ED50 in the series on Rattus norvegicus [5] was found to be 1.4 mg/kg.

Take `CSc1ccc(C2=C(c3ccc(S(C)(=O)=O)cc3)C(C)(O)OC2=O)cc1` (configuration not stated): the IC50 in series [9] stood at 38 µM; in [7] it was 7 µM; in series [6], 0.31 µM; in series [8], 1.7 µM.

In series [7], `CC1(O)OC(=O)C(c2cc3ccccc3s2)=C1c1ccc(S(C)(=O)=O)cc1` (configuration not stated) yielded an IC50 of more than 100 µM.

Take `CCOC1(C)OC(=O)C(c2ccc(F)cc2)=C1c1ccc(S(C)(=O)=O)cc1` (configuration not stated): the IC50 in series [7] was determined as 10 µM; in series [8] it was 0.5 µM.

For the compound `CC1(O)OC(=O)C(c2ccc(O)cc2)=C1c1ccc(S(C)(=O)=O)cc1` (configuration not stated), the results for the IC50 in [7], in [6] and in series [8] were more than 10 µM, more than 5 µM and more than 33 µM, respectively.

`CC1(O)OC(=O)C(c2ccc(F)c(Cl)c2)=C1c1ccc(S(C)(=O)=O)cc1` (configuration not stated): the IC50 in series [7] was 81 µM; in series [6] it was 0.11 µM; in series [8], 2.2 µM.

Take `CC1(O)OC(=O)C(c2ccc(F)c(F)c2)=C1c1ccc(S(C)(=O)=O)cc1` (configuration not stated): the results for the concentration for half-maximal inhibition (IC50) in series [7], in series [6] and in series [8] were more than 300 µM, 0.2 µM and 6.3 µM, respectively. The ED50 with Rattus norvegicus [5] was more than 10 mg/kg.

In series [11], `CC(=O)/C(=C(\C(=O)[O-])c1ccccc1)c1ccc(S(C)(=O)=O)cc1.[Na+]` returned a solubility of more than 100 mg/mL.

On to `CC1(O)OC(=O)C(c2cc(F)cc(F)c2)=C1c1ccc(S(C)(=O)=O)cc1` (configuration not stated), for which the IC50 in series [9] was more than 90 µM; in [7], more than 100 µM; in series [6], 0.55 µM; in [8], 13.4 µM.

On to `Cc1ccc(-c2cc(C(F)(F)F)nn2-c2ccc(S(N)(=O)=O)cc2)cc1` [CELECOXIB], for which the ED50 in the series on Rattus norvegicus [5] amounted to 3.2 mg/kg.

For `CS(=O)(=O)c1ccc(C2=C(c3ccccc3)C(=O)OC2)cc1` [ROFECOXIB], in the series with Rattus norvegicus [5], the ED50 turned out to be 1.5 mg/kg.
